From the supplement of paper PMC10307832

How the values were obtained:
Assay in all cases: relative viability (nuclei count vs DMSO), 5 days (fraction); higher = more cells survive
[1] = test system: COR-L23
Summary of the method: (§1)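 Dosing by pin tool came one day after lung cancer cell lines were seeded in 1536-well plates, using either one drug or a fixed anchor-drug dose plus five library-drug doses (not always all listed) in √10 steps. After 5 days, nuclei were counted on 4× images. Relative viability is treated-well nuclei count divided by vehicle-well nuclei count, and values are medians of duplicate plates.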

[2] = test system: ChaGo-K-1
Summary of the method: as §1

[3] = test system: PC-14
Summary of the method: as §1

[4] = test system: HOP-62
Summary of the method: as §1

[5] = test system: H3255
Summary of the method: as §1

[6] = test system: HARA
Summary of the method: as §1

[7] = test system: NCI-H1437
Summary of the method: as §1

[8] = test system: NCI-H441
Summary of the method: as §1

[9] = test system: NCI-H2085
Summary of the method: as §1

[10] = test system: NCI-H1666
Summary of the method: as §1

[11] = test system: NCI-H661
Summary of the method: as §1

[12] = test system: LXF-289
Summary of the method: as §1

[13] = test system: LCLC-97TM1
Summary of the method: as §1

[14] = test system: NCI-H1944
Summary of the method: as §1

[15] = test system: NCI-H2126
Summary of the method: as §1

[16] = test system: NCI-H2087
Summary of the method: as §1

[17] = test system: NCI-H3122
Summary of the method: as §1

[18] = test system: EPLC-272H
Summary of the method: as §1

[19] = test system: NCI-H1650
Summary of the method: as §1

[20] = test system: NCI-H1793
Summary of the method: as §1

[21] = test system: HCC-78
Summary of the method: as §1

[22] = test system: NCI-H1395
Summary of the method: as §1

[23] = test system: NCI-H596
Summary of the method: as §1

CN1CCN(CCOc2cc(OC3CCOCC3)c3c(Nc4c(Cl)ccc5c4OCO5)ncnc3c2)CC1 [Saracatinib] + CS(=O)(=O)N1CCN(Cc2cc3nc(-c4cccc5[nH]ncc45)nc(N4CCOCC4)c3s2)CC1 [Pictilisib] (partner 1 µM)
relative viability ([1]; first compound 0.02 µM): 0.721 | relative viability ([1]; first compound 0.2 µM): 0.568 | relative viability ([1]; first compound 0.6325 µM): 0.75 | relative viability ([1]; first compound 2 µM): 0.675 | relative viability ([2]; first compound 0.02 µM): 0.784 | relative viability ([2]; first compound 0.2 µM): 0.521 | relative viability ([2]; first compound 0.6325 µM): 0.903 | relative viability ([2]; first compound 2 µM): 0.379 | relative viability ([3]; first compound 0.02 µM): 0.593 | relative viability ([3]; first compound 0.2 µM): 0.337 | relative viability ([3]; first compound 0.6325 µM): 0.0893 | relative viability ([3]; first compound 2 µM): 0.0627 | relative viability ([4]; first compound 0.02 µM): 0.548 | relative viability ([4]; first compound 0.2 µM): 0.685 | relative viability ([4]; first compound 0.6325 µM): 1.05 | relative viability ([4]; first compound 2 µM): 0.605 | relative viability ([5]; first compound 0.02 µM): 0.432 | relative viability ([5]; first compound 0.2 µM): 0.391 | relative viability ([5]; first compound 0.6325 µM): 0.352 | relative viability ([5]; first compound 2 µM): 0.156 | relative viability ([6]; first compound 0.02 µM): 0.37 | relative viability ([6]; first compound 0.6325 µM): 0.374 | relative viability ([6]; first compound 2 µM): 0.118 | relative viability ([7]; first compound 0.02 µM): 0.416 | relative viability ([7]; first compound 0.2 µM): 0.418 | relative viability ([7]; first compound 0.6325 µM): 0.454 | relative viability ([7]; first compound 2 µM): 0.393 | relative viability ([8]; first compound 0.02 µM): 0.461 | relative viability ([8]; first compound 0.2 µM): 0.406 | relative viability ([8]; first compound 0.6325 µM): 0.501 | relative viability ([8]; first compound 2 µM): 0.329 | relative viability ([9]; first compound 0.02 µM): 0.474 | relative viability ([9]; first compound 0.2 µM): 0.345 | relative viability ([9]; first compound 0.6325 µM): 0.481 | relative viability ([9]; first compound 2 µM): 0.377 | relative viability ([10]; first compound 0.02 µM): 0.493 | relative viability ([10]; first compound 0.2 µM): 0.413 | relative viability ([10]; first compound 0.6325 µM): 0.563 | relative viability ([10]; first compound 2 µM): 0.469 | relative viability ([11]; first compound 0.02 µM): 0.452 | relative viability ([11]; first compound 0.2 µM): 0.271 | relative viability ([11]; first compound 0.6325 µM): 0.314 | relative viability ([11]; first compound 2 µM): 0.241 | relative viability ([12]; first compound 0.02 µM): 0.715 | relative viability ([12]; first compound 0.2 µM): 0.731 | relative viability ([12]; first compound 0.6325 µM): 0.8 | relative viability ([12]; first compound 2 µM): 0.472 | relative viability ([13]; first compound 0.02 µM): 0.231 | relative viability ([13]; first compound 0.2 µM): 0.12 | relative viability ([13]; first compound 0.6325 µM): 0.193 | relative viability ([13]; first compound 2 µM): 0.186 | relative viability ([14]; first compound 0.02 µM): 0.335 | relative viability ([14]; first compound 0.6325 µM): 0.288 | relative viability ([14]; first compound 2 µM): 0.278 | relative viability ([15]; first compound 0.02 µM): 0.475 | relative viability ([15]; first compound 0.2 µM): 0.498 | relative viability ([15]; first compound 0.6325 µM): 0.529 | relative viability ([15]; first compound 2 µM): 0.429 | relative viability ([16]; first compound 0.02 µM): 0.963 | relative viability ([16]; first compound 0.2 µM): 0.567 | relative viability ([16]; first compound 0.6325 µM): 1.06 | relative viability ([16]; first compound 2 µM): 0.967 | relative viability ([17]; first compound 0.02 µM): 0.573 | relative viability ([17]; first compound 0.6325 µM): 0.586 | relative viability ([17]; first compound 2 µM): 0.454 | relative viability ([18]; first compound 0.02 µM): 0.337 | relative viability ([18]; first compound 0.2 µM): 0.298 | relative viability ([18]; first compound 0.6325 µM): 0.388 | relative viability ([18]; first compound 2 µM): 0.232 | relative viability ([19]; first compound 0.02 µM): 0.626 | relative viability ([19]; first compound 0.2 µM): 0.468 | relative viability ([19]; first compound 0.6325 µM): 0.377 | relative viability ([19]; first compound 2 µM): 0.314 | relative viability ([20]; first compound 0.02 µM): 0.345 | relative viability ([20]; first compound 0.2 µM): 0.213 | relative viability ([20]; first compound 0.6325 µM): 0.41 | relative viability ([20]; first compound 2 µM): 0.408 | relative viability ([21]; first compound 0.02 µM): 0.242 | relative viability ([21]; first compound 0.2 µM): 0.154 | relative viability ([21]; first compound 0.6325 µM): 0.178 | relative viability ([21]; first compound 2 µM): 0.21 | relative viability ([22]; first compound 0.02 µM): 0.603 | relative viability ([22]; first compound 0.2 µM): 0.497 | relative viability ([22]; first compound 0.6325 µM): 0.672 | relative viability ([22]; first compound 2 µM): 0.528 | relative viability ([23]; first compound 0.02 µM): 0.218 | relative viability ([23]; first compound 0.2 µM): 0.429 | relative viability ([23]; first compound 0.6325 µM): 0.435 | relative viability ([23]; first compound 2 µM): 0.319
